Reference: patent US9949980B2, “Drugs to prevent HPV infection” (Wisconsin Alumni Research Foundation, priority 2008, dated 2018)
Where two headings read alike, the source gives them in different places.

Columns and labels:
HPV16 pseudoviruses = test: microbe, parasite or virus in culture; type: cell-based; conditions: Human papillomavirus 16, HEK-293T, 48 h
Method: (§1) FIG. 1. High throughout screen (HTS) for identifying inhibitors of HPV infection. Shown is a schematic showing basic steps in the HTS. […] Briefly, HPV16 pseudoviruses containing the SEAP reporter genes are analyzed for their ability to infect as judged by the levels of secreted alkaline phosphatase in the tissue culture supernatant (light grey arrows). Cell viability was assessed in parallel on the same wells (dark grey arrows). In the specific HTS carried out in this study, the compounds were added at 3 uM/1% DMSO final concentration (black arrow) 4 hours prior to infection.
(§2) After incubation at 37° C. for 24 hrs, 35 μL of media was removed. […] Cells were incubated at 37° C. for 48 hrs. 2.5 μL of media was collected for SEAP assay using a PHOSPHA-LIGHT chemiluminescent alkaline phosphatase assay (Applied Biosystems). Cell viability was determined using the CellTiter Glo Luminescent Cell Viability Assay™ (Promega).

in vitro = conditions: human, Viability (CelTiter Glow)
Method: as §1, §2

[1] = read-out: Infectivity (SEAP Activity), 3 μM HTS standard concentration, 293T cells, 48 hrs
[2] = read-out: Infectivity vs. viability, 3 μM HTS standard concentration, ratio infectivity/viability

## O=C1NCCCC1c1n[nH]c(=S)n1Cc1ccccc1 (centres unmarked) [BTB 00471, 3-[4-(phenylmethyl)-5-sulfanylidene-1H-1,2,4-triazol-3-yl]piperidin-2-one]
HPV16 pseudoviruses; [1]
  activity at 3 µM: 41%
HPV16 pseudoviruses; [2]
  activity at 3 µM: 37.5%
In vitro
  viability at 52 h, 3 μM: 109%

## CN(C)C=C=C(O)c1ccccc1C(=O)c1ccc(Cl)cc1 [BTB 08556, (4-chlorophenyl)-[2-(3-dimethylamino-1-hydroxypropa-1,2-dienyl)phenyl]methanone]
HPV16 pseudoviruses; [1]
  activity at 3 µM: 55.3%
HPV16 pseudoviruses; [2]
  activity at 3 µM: 52%
In vitro
  viability at 52 h, 3 μM: 106%

## CC(C)(C)NC(=O)C=Cc1cc([N+](=O)[O-])ccc1Sc1ccc(C(F)(F)F)cn1 [BTB 09390, N1-(tert-butyl)-3-(5-nitro-2-{[5-(trifluoromethyl)-2-pyridyl]thio}phenyl)acrylamide]
HPV16 pseudoviruses; [1]
  activity at 3 µM: 28.9%
HPV16 pseudoviruses; [2]
  activity at 3 µM: 35.6%
In vitro
  viability at 52 h, 3 μM: 81.2%

## N#CCCOCc1cccc2ccccc12 [Compound 5102121, 3-(1-naphthylmethoxy)propanenitrile]
HPV16 pseudoviruses; [1]
  activity at 3 µM: 55.8%
HPV16 pseudoviruses; [2]
  activity at 3 µM: 50.6%
In vitro
  viability at 52 h, 3 μM: 110%

## CC(=NNC(N)=O)C1CC1(C)C(C)(C)C (centres unmarked) [Compound 5104160, 1-(2-tert-butyl-2-methylcyclopropyl)-1-ethanone semicarbazone]
HPV16 pseudoviruses; [1]
  activity at 3 µM: 63%
HPV16 pseudoviruses; [2]
  activity at 3 µM: 56.2%
In vitro
  viability at 52 h, 3 μM: 112%

## O=S(=O)(Nc1nc2ccccc2nc1Nc1ccccc1)c1ccccc1 [Compound 5123541, N-(3-anilino-2-quinoxalinyl)benzenesulfonamide]
HPV16 pseudoviruses; [1]
  activity at 3 µM: 47%
HPV16 pseudoviruses; [2]
  activity at 3 µM: 44.5%
In vitro
  viability at 52 h, 3 μM: 106%

## O=C(NC(NC(=S)Nc1ccccc1[N+](=O)[O-])C(Cl)(Cl)Cl)c1ccco1 (centres unmarked) [Compound 5143070, N-[2,2,2-trichloro-1-({[(2-nitrophenyl)amino]carbonothioyl}amino)ethyl]-2-furamide]
HPV16 pseudoviruses; [1]
  activity at 3 µM: 43.7%
HPV16 pseudoviruses; [2]
  activity at 3 µM: 40.5%
In vitro
  viability at 52 h, 3 μM: 108%

## O=C(Nc1ccc(Cl)cc1)Nc1ccc([N+](=O)[O-])cc1Br [Compound 5191771, N-(2-bromo-4-nitrophenyl)-N′-(4-chlorophenyl)urea]
HPV16 pseudoviruses; [1]
  activity at 3 µM: 39.9%
HPV16 pseudoviruses; [2]
  activity at 3 µM: 41.9%
In vitro
  viability at 52 h, 3 μM: 95.2%

## O=C(NC(=S)Nc1ccc([N+](=O)[O-])cc1O)C12CC3CC(CC(C3)C1)C2 [Compound 5197089, N-{[(2-hydroxy-4-nitrophenyl)amino]carbonothioyl}-1-adamantanecarboxamide]
HPV16 pseudoviruses; [1]
  activity at 3 µM: 2.01%
HPV16 pseudoviruses; [2]
  activity at 3 µM: 2.99%
In vitro
  viability at 52 h, 3 μM: 67%

## CCN(C(=O)c1ccccc1Cl)c1ccccc1 [Compound 5272305, 2-chloro-N-ethyl-N-phenylbenzamide]
HPV16 pseudoviruses; [1]
  activity at 3 µM: 47.4%
HPV16 pseudoviruses; [2]
  activity at 3 µM: 45.6%
In vitro
  viability at 52 h, 3 μM: 104%

## O=C(CSc1nc2cc([N+](=O)[O-])ccc2[nH]1)Nc1ccc2c(c1)OCO2 [Compound 5349092, N-1,3-benzodioxol-5-yl-2-[(5-nitro-1H-benzimidazol-2-yl)thio]acetamide]
HPV16 pseudoviruses; [1]
  activity at 3 µM: 52.5%
HPV16 pseudoviruses; [2]
  activity at 3 µM: 51.1%
In vitro
  viability at 52 h, 3 μM: 103%

## NC(=O)NC(c1ccccc1)c1ccccc1Br (centres unmarked) [Compound 5571356, N-[(2-bromophenyl)(phenyl)methyl]urea]
HPV16 pseudoviruses; [1]
  activity at 3 µM: 59.1%
HPV16 pseudoviruses; [2]
  activity at 3 µM: 56%
In vitro
  viability at 52 h, 3 μM: 106%

## COc1cc(C=C2C(=O)NN(c3ccc(Cl)c(Cl)c3)C2=O)c([N+](=O)[O-])cc1OC [Compound 5581710, 1-(3,4-dichlorophenyl)-4-(4,5-dimethoxy-2-nitrobenzylidene)-3,5-pyrazolidinedione]
HPV16 pseudoviruses; [1]
  activity at 3 µM: 23.9%
HPV16 pseudoviruses; [2]
  activity at 3 µM: 31.9%
In vitro
  viability at 52 h, 3 μM: 75.1%

## O=C1NN(c2ccc(Cl)c(Cl)c2)C(=O)C1=Cc1ccc(Cl)c([N+](=O)[O-])c1 [Compound 5585119, 4-(4-chloro-3-nitrobenzylidene)-1-(3,4-dichlorophenyl)-3,5-pyrazolidinedione]
HPV16 pseudoviruses; [1]
  activity at 3 µM: 54.4%
HPV16 pseudoviruses; [2]
  activity at 3 µM: 50.5%
In vitro
  viability at 52 h, 3 μM: 108%

## Cc1ccc(NC(=O)Cc2ccc(F)cc2)cc1 [Compound 5585700, 2-(4-fluorophenyl)-N-(4-methylphenyl)acetamide]
HPV16 pseudoviruses; [1]
  activity at 3 µM: 55.4%
HPV16 pseudoviruses; [2]
  activity at 3 µM: 52.5%
In vitro
  viability at 52 h, 3 μM: 105%

## O=[N+]([O-])c1cccc(C2Nc3ccc(Cl)cc3C3C=CCC32)c1 (centres unmarked) [Compound 5658856, 8-chloro-4-(3-nitrophenyl)-3a,4,5,9b-tetrahydro-3H-cyclopenta[c]quinoline]
HPV16 pseudoviruses; [1]
  activity at 3 µM: 14.4%
HPV16 pseudoviruses; [2]
  activity at 3 µM: 19.1%
In vitro
  viability at 52 h, 3 μM: 75.7%

## COc1cccc(C(=O)Nc2ccc3oc(-c4ccc(F)cc4Cl)nc3c2)c1 [Compound 5715107, N-[2-(2-chloro-4-fluorophenyl)-1,3-benzoxazol-5-yl]-3-methoxybenzamide]
HPV16 pseudoviruses; [1]
  activity at 3 µM: 42.5%
HPV16 pseudoviruses; [2]
  activity at 3 µM: 38.2%
In vitro
  viability at 52 h, 3 μM: 111%

## CCOc1ccc(N(CC(=O)Nc2c(C)cccc2C)S(=O)(=O)c2ccc(SC)cc2)cc1 [Compound 5740080, N~1~-(2,6-dimethylphenyl)-N~2~-(4-ethoxyphenyl)-N~2~-{[4-(methylthio)phenyl]sulfonyl}glycinamide]
HPV16 pseudoviruses; [1]
  activity at 3 µM: 42.2%
HPV16 pseudoviruses; [2]
  activity at 3 µM: 40.7%
In vitro
  viability at 52 h, 3 μM: 104%

## O=C(Nc1ccccc1)Nc1nnc(Cc2ccc(F)cc2)s1 [Compound 5789300, N-[5-(4-fluorobenzyl)-1,3,4-thiadiazol-2-yl]-N′-phenylurea]
HPV16 pseudoviruses; [1]
  activity at 3 µM: 40.1%
HPV16 pseudoviruses; [2]
  activity at 3 µM: 40.8%
In vitro
  viability at 52 h, 3 μM: 98.4%

## O=C(Nc1sc2c(c1C(=O)NCCc1ccccc1)CCCCC2)c1ccccc1F [Compound 5794700, 2-[(2-fluorobenzoyl)amino]-N-(2-phenylethyl)-5,6,7,8-tetrahydro-4H-cyclohepta[b]thiophene-3-carboxamide]
HPV16 pseudoviruses; [1]
  activity at 3 µM: 49.2%
HPV16 pseudoviruses; [2]
  activity at 3 µM: 45.1%
In vitro
  viability at 52 h, 3 μM: 109%

## COc1ccc(Cl)cc1C(=O)Nc1ccc(NC(=O)c2ccc(C(C)(C)C)cc2)cc1 [Compound 5795860, N-{4-[(4-tert-butylbenzoyl)amino]phenyl}-5-chloro-2-methoxybenzamide]
HPV16 pseudoviruses; [1]
  activity at 3 µM: 47.1%
HPV16 pseudoviruses; [2]
  activity at 3 µM: 42.4%
In vitro
  viability at 52 h, 3 μM: 111%

## Cc1ccnc(NS(=O)(=O)c2ccc(N3C(=O)c4ccccc4C3=O)cc2)n1 [Compound 5842264, 4-(1,3-dioxo-1,3-dihydro-2H-isoindol-2-yl)-N-(4-methyl-2-pyrimidinyl)benzenesulfonamide]
HPV16 pseudoviruses; [1]
  activity at 3 µM: 67%
HPV16 pseudoviruses; [2]
  activity at 3 µM: 59.6%
In vitro
  viability at 52 h, 3 μM: 113%

## O=C1C(=Cc2cccc(O)c2)SC(=S)N1c1ccc(Cl)cc1 [Compound 5851060, 3-(4-chlorophenyl)-5-(3-hydroxybenzylidene)-2-thioxo-1,3-thiazolidin-4-one]
HPV16 pseudoviruses; [1]
  activity at 3 µM: 56.3%
HPV16 pseudoviruses; [2]
  activity at 3 µM: 55.3%
In vitro
  viability at 52 h, 3 μM: 102%

## CCOC(=O)[C@H]1C(=O)c2ccccc2C(=O)/C1=C/c1ccc(CC)cc1 [Compound 5860904, ethyl (2R,3E)-3-[(4-ethylphenyl)methylidene]-1,4-dioxonaphthalene-2-carboxylate]
HPV16 pseudoviruses; [1]
  activity at 3 µM: 21.9%
HPV16 pseudoviruses; [2]
  activity at 3 µM: 33.2%
In vitro
  viability at 52 h, 3 μM: 66%

## Cc1ccc(S(=O)(=O)N(C)c2ccc(Br)cc2C(=O)c2ccccc2)cc1 [Compound 5867793, N-(2-benzoyl-4-bromophenyl)-N,4-dimethylbenzenesulfonamide]
HPV16 pseudoviruses; [1]
  activity at 3 µM: 36.1%
HPV16 pseudoviruses; [2]
  activity at 3 µM: 38%
In vitro
  viability at 52 h, 3 μM: 95%

## COc1cc(C=C2SC(=S)NC2=O)cc(Cl)c1OC(C)C [Compound 5868253, 5-(3-chloro-4-isopropoxy-5-methoxybenzylidene)-2-thioxo-1,3-thiazolidin-4-one]
HPV16 pseudoviruses; [1]
  activity at 3 µM: 4.97%
HPV16 pseudoviruses; [2]
  activity at 3 µM: 7.45%
In vitro
  viability at 52 h, 3 μM: 66.8%

## CC1=C(C(=O)Nc2ccc(C)c(Cl)c2)C(c2ccc(F)cc2)NC(=O)N1 (centres unmarked) [Compound 5880766, N-(3-chloro-4-methylphenyl)-4-(4-fluorophenyl)-6-methyl-2-oxo-1,2,3,4-tetrahydro-5-pyrimidinecarboxamide]
HPV16 pseudoviruses; [1]
  activity at 3 µM: 31.9%
HPV16 pseudoviruses; [2]
  activity at 3 µM: 34.6%
In vitro
  viability at 52 h, 3 μM: 92%

## CSc1nsc(SC)c1NC(=O)OCC1([N+](=O)[O-])COC(C)(C)OC1 [Compound 5893711, (2,2-dimethyl-5-nitro-1,3-dioxan-5-yl)methyl [3,5-bis(methylthio)-4-isothiazolyl]carbamate]
HPV16 pseudoviruses; [1]
  activity at 3 µM: 63.3%
HPV16 pseudoviruses; [2]
  activity at 3 µM: 58.6%
In vitro
  viability at 52 h, 3 μM: 108%

## COn1c(=O)c(=O)n(OC)c2ccccc21 [Compound 5896361, 1,4-dimethoxy-1,4-dihydro-2,3-quinoxalinedione]
HPV16 pseudoviruses; [1]
  activity at 3 µM: 60.8%
HPV16 pseudoviruses; [2]
  activity at 3 µM: 59.3%
In vitro
  viability at 52 h, 3 μM: 102%

## CC(=O)SCCC(=O)N1CCn2c3c(c4cc(C)ccc42)CCCC31 (stereo not drawn) [Compound 5915049, S-[3-(8-methyl-1,2,3a,4,5,6-hexahydro-3H-pyrazino[3,2,1-jk]carbazol-3-yl)-3-oxopropyl] ethanethioate]
HPV16 pseudoviruses; [1]
  activity at 3 µM: 56.8%
HPV16 pseudoviruses; [2]
  activity at 3 µM: 55.9%
In vitro
  viability at 52 h, 3 μM: 102%

## CCCC(=O)NC(c1cccc([N+](=O)[O-])c1)c1ccc2cccnc2c1O (centres unmarked) [Compound 5926288, N-[(8-hydroxy-7-quinolinyl)(3-nitrophenyl)methyl]butanamide]
HPV16 pseudoviruses; [1]
  activity at 3 µM: 1.52%
HPV16 pseudoviruses; [2]
  activity at 3 µM: 2.4%
In vitro
  viability at 52 h, 3 μM: 63.3%

## O=C(Nc1ccc(Cl)c(Cl)c1)Nc1ccccc1C(=O)O [Compound 5963375, 2-({[(3,4-dichlorophenyl)amino]carbonyl}amino)benzoic acid]
HPV16 pseudoviruses; [1]
  activity at 3 µM: 14.2%
HPV16 pseudoviruses; [2]
  activity at 3 µM: 20.2%
